{"source": "ChEMBL document CHEMBL1158923", "about": "“Cytotoxic metabolites from the sponge Ianthella basta collected in Papua New Guinea” (1990)", "data": [{"tested_on": "L1210", "test": "Cytotoxicity against mouse L1210 cells", "assay_type": "functional", "settings": "read-out: ED50 (the source's name)", "units": {"EC50": "µg/mL"}, "values": [{"smiles": "CO/N=C1\\Cc2cc(Br)c(OC)c(c2)Oc2c(Br)cc(cc2Br)C/C(=N\\OC)C(=O)NCCc2cc(Br)c(OC)c(c2)Oc2ccc(cc2Br)/C=C/NC1=O", "note": "[TETRAMETHYLBASTADIN 4]", "EC50": 5}, {"smiles": "CO/N=C1/Cc2cc(Br)c(c(Br)c2)Oc2cc(cc(Br)c2OC)C/C(=N\\OC)C(=O)NCC(O)c2ccc(c(Br)c2)Oc2cc(cc(Br)c2OC)CCNC1=O", "note": "(stereo unspecified) [TETRAMETHYLBASTADIN 8]", "EC50": 5}, {"smiles": "O=C1NCCc2cc(Br)c(O)c(c2)Oc2c(Br)cc(cc2Br)C(O)CNC(=O)/C(=N/O)Cc2cc(Br)c(O)c(c2)Oc2ccc(cc2Br)C/C1=N\\O", "note": "(stereo unspecified) [BASTADIN 9]", "EC50": 5}, {"smiles": "CO/N=C1\\Cc2ccc(c(Br)c2)Oc2cc(cc(Br)c2OC)C/C(=N\\OC)C(=O)NCC(O)c2cc(Br)c(c(Br)c2)Oc2cc(cc(Br)c2OC)CCNC1=O", "note": "(stereo unspecified) [TETRAMETHYLBASTADIN 9]", "EC50": 5}, {"smiles": "O=C1N/C=C/c2ccc(c(Br)c2)Oc2cc(cc(Br)c2O)CCNC(=O)/C(=N/O)Cc2cc(Br)c(c(Br)c2)Oc2cc(cc(Br)c2O)C/C1=N\\O", "note": "[BASTADIN 4]", "EC50": 5}, {"smiles": "O=C1NCCc2cc(Br)c(O)c(c2)Oc2ccc(cc2Br)[C@H](O)CNC(=O)/C(=N/O)Cc2cc(Br)c(O)c(c2)Oc2c(Br)cc(cc2Br)C/C1=N\\O", "note": "[BASTADIN 8]", "EC50": 5}]}]}
